Experimental data taken from US20220340633A1 (Adepthera LLC, priority 2016, published 2022).
Entries after “also recorded” stand apart in the source; their conditions may differ. Positions of bridges follow the written chain, without caps; N, C: chain ends. Non-standard residues stand in square brackets, D forms with d. Residues, ends and D or L forms follow the SMILES beside them. *: point of attachment. Palmitoyl = CCCCCCCCCCCCCCCC(=O)*; AEEA = NCCOCCOCC(=O)O

What was measured:
[1] = system: primary human lymphatic endothelia cells (HLEC); assay: HLEC survival in medium with 0.1% FBS, MTS assay; conditions: 30, 100, and 300 nM, 72 hrs
Method: The cells were cultured for 72 hrs, and cell viability was assayed with the MTS assay (Promega).

[2] = molecular target: T1, CLR/RAMP2 receptor (Homo sapiens, UniProt O60895+Q16602); assay: CLR/RAMP2 arrestin receptor activation assay (agonist); assay type: cell-based; conditions: for Emax: CHO-K1, read-out: CLR/RAMP 2 Max Activity % of positive control, CHO-K1 cells, % of positive control (ADM)
T1 construct: host or cells: CHO-K1 cells
Method: (§1) Using a receptor activation assay, the dose-dependent stimulatory response of peptide agonists of the present invention on a CLR/RAMP1 receptor, a CLR/RAMP2, or a CLR/RAMP3 receptor complex was determined. A cell line carrying the recombinant CLR/RAMP1, CLR/RAMP2, or a CLR/RAMP3 receptor was employed in the assay. Peptide agonist activities were tested, in duplicate, at 10 different concentrations, starting with 1.0 μM and serially diluted 3-fold, in DMSO. […] The CLR/RAMP1 cAMP, CLR/RAMP2 arrestin assays, and CLR/RAMP3 cAMP (DiscoveRx, Fremont, Calif.) were used.

[3] = molecular target: CLR/RAMP1 receptor (Homo sapiens, UniProt O60894+Q16602); assay: CLR/RAMP1 cAMP receptor activation assay (agonist); assay type: cell-based; design: host or cells: 1321N1 cells; conditions: 1321-N1, read-out: CLR/RAMP 1 Max Activity % of positive control, 1321N1 cells; % of positive control (β-CGRP)
Chain of CLR/RAMP1 receptor (Q16602 23-461): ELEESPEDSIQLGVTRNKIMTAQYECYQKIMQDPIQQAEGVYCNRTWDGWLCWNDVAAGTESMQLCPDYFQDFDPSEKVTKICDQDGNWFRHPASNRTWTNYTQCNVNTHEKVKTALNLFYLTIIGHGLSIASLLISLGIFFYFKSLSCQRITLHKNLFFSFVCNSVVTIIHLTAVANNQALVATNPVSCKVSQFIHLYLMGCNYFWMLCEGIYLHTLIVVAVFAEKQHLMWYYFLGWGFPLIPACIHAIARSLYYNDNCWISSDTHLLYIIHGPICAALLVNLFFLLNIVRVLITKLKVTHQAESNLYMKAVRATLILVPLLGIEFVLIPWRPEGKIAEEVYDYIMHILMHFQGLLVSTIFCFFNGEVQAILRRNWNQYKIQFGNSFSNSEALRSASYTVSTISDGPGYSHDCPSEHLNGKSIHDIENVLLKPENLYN
Chain of CLR/RAMP1 receptor (O60894 27-148): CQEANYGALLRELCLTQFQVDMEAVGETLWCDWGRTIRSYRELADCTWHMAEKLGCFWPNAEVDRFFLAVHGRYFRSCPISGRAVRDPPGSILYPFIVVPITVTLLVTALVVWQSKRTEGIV
Method: as §1

T1 sequence (Q16602 23-461): as the sequence (Q16602 23-461) above
T1 sequence (O60895 43-175): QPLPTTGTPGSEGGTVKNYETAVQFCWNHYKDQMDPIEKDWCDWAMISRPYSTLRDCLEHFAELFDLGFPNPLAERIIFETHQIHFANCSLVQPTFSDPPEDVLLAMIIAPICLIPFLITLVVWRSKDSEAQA

SMILES	HLEC survival (in words) [1]	Emax [2]	Emax [3]	receptor specificity of agonist ([2]; CLR/RAMP2 versus CLR/RAMP1)
CCCCCCCCCCCCCCCC(=O)NCCCC[C@H](NC(=O)[C@@H](NC(C)=O)[C@@H](C)O)C(=O)N[C@@H](CCCCN)C(=O)N[C@H](C(=O)N[C@@H](CC(C)C)C(=O)N[C@@H](CCCNC(=N)N)C(=O)N[C@H](C(=O)NCC(=O)N[C@H]1CSSC[C@@H](C(=O)N[C@H](C(=O)N[C@H](C(=O)N[C@@H](CCC(N)=O)C(=O)N[C@@H](CCCCN)C(=O)N[C@@H](CC(C)C)C(=O)N[C@@H](C)C(=O)N[C@@H](Cc2c[nH]cn2)C(=O)N[C@@H](CCC(N)=O)C(=O)N[C@H](C(=O)N[C@@H](Cc2ccc(O)cc2)C(=O)N[C@@H](CCC(N)=O)C(=O)N[C@@H](Cc2ccccc2)C(=O)N[C@H](C(=O)N[C@@H](CC(=O)O)C(=O)N[C@@H](CCCCN)C(=O)N[C@@H](CC(=O)O)C(=O)N[C@@H](CCCCN)C(=O)N[C@@H](CC(=O)O)C(=O)N[C@@H](CC(N)=O)C(=O)N[C@@H](CO)C(=O)N[C@@H](C)C(=O)N2CCC[C@H]2C(=O)N[C@H](C(=O)N[C@@H](CC(=O)O)C(=O)N2CCC[C@H]2C(=O)N[C@@H](CO)C(=O)N[C@@H](CO)C(=O)N2CCC[C@H]2C(=O)N[C@@H](Cc2c[nH]cn2)C(=O)N[C@@H](CO)C(=O)N[C@@H](Cc2ccc(O)cc2)C(N)=O)C(C)C)[C@@H](C)O)[C@@H](C)CC)C(C)C)[C@@H](C)O)NC(=O)[C@H]([C@@H](C)O)NC(=O)CNC(=O)[C@H](Cc2ccccc2)NC(=O)[C@H](CCCNC(=N)N)NC1=O)[C@@H](C)O)[C@@H](C)O [SEQ ID NO: 39]	dose-dependently stimulated; also recorded: significantly promote			
CCCCCCCCCCCCCCCC(=O)NCCCC[C@H](NC(C)=O)C(=O)NCC(=O)N[C@H]1CSSC[C@@H](C(=O)N[C@H](C(=O)N[C@H](C(=O)N[C@@H](CCC(N)=O)C(=O)N[C@@H](CCCCN)C(=O)N[C@@H](CC(C)C)C(=O)N[C@@H](C)C(=O)N[C@@H](Cc2c[nH]cn2)C(=O)N[C@@H](CCC(N)=O)C(=O)N[C@H](C(=O)N[C@@H](Cc2ccc(O)cc2)C(=O)N[C@@H](CCC(N)=O)C(=O)N[C@@H](Cc2ccccc2)C(=O)N[C@H](C(=O)N2CCC[C@H]2C(=O)N[C@@H](C)C(=O)NCC(=O)N[C@@H](CCCNC(=N)N)C(=O)N[C@@H](CCC(N)=O)C(=O)N[C@@H](CC(=O)O)C(=O)N[C@@H](CO)C(=O)N[C@@H](C)C(=O)N2CCC[C@H]2C(=O)N[C@H](C(=O)N[C@@H](CC(=O)O)C(=O)N2CCC[C@H]2C(=O)N[C@@H](CO)C(=O)N[C@@H](CO)C(=O)N2CCC[C@H]2C(=O)N[C@@H](Cc2c[nH]cn2)C(=O)N[C@@H](CO)C(=O)N[C@@H](Cc2ccc(O)cc2)C(N)=O)C(C)C)[C@@H](C)O)[C@@H](C)CC)C(C)C)[C@@H](C)O)NC(=O)[C@H]([C@@H](C)O)NC(=O)CNC(=O)[C@H](Cc2ccccc2)NC(=O)[C@H](CCCNC(=N)N)NC1=O [SEQ ID NO: 33]	dose-dependently stimulated; also recorded: significantly promote			
CCCCCCCCCCCCCCCC(=O)N[C@@H](CCCCN)C(=O)N[C@H](C(=O)N[C@@H](CCCCN)C(=O)N[C@@H](CCCCN)C(=O)N[C@H](C(=O)N[C@@H](CC(C)C)C(=O)N[C@@H](CCCNC(=N)N)C(=O)N[C@H](C(=O)NCC(=O)N[C@H]1CSSC[C@@H](C(=O)N[C@H](C(=O)N[C@H](C(=O)N[C@@H](CCC(N)=O)C(=O)N[C@@H](CCCCN)C(=O)N[C@@H](CC(C)C)C(=O)N[C@@H](C)C(=O)N[C@@H](Cc2c[nH]cn2)C(=O)N[C@@H](CCC(N)=O)C(=O)N[C@H](C(=O)N[C@@H](Cc2ccc(O)cc2)C(=O)N[C@@H](CCC(N)=O)C(=O)N[C@@H](Cc2ccccc2)C(=O)N[C@H](C(=O)N[C@@H](CC(=O)O)C(=O)N[C@@H](CCCCN)C(=O)N[C@@H](CC(=O)O)C(=O)N[C@@H](CCCCN)C(=O)N[C@@H](CC(=O)O)C(=O)N[C@@H](CC(N)=O)C(=O)N[C@@H](CO)C(=O)N[C@@H](C)C(=O)N2CCC[C@H]2C(=O)N[C@H](C(=O)N[C@@H](CC(=O)O)C(=O)N2CCC[C@H]2C(=O)N[C@@H](CO)C(=O)N[C@@H](CO)C(=O)N2CCC[C@H]2C(=O)N[C@@H](Cc2c[nH]cn2)C(=O)N[C@@H](CO)C(=O)N[C@@H](Cc2ccc(O)cc2)C(N)=O)C(C)C)[C@@H](C)O)[C@@H](C)CC)C(C)C)[C@@H](C)O)NC(=O)[C@H]([C@@H](C)O)NC(=O)CNC(=O)[C@H](Cc2ccccc2)NC(=O)[C@H](CCCNC(=N)N)NC1=O)[C@@H](C)O)[C@@H](C)O)[C@@H](C)O [SEQ ID NO: 38]	dose-dependently stimulated; also recorded: significantly promote			
CCCCCCCCCCCCCCCC(=O)NCCCC[C@H](NC(=O)[C@@H](NC(=O)COCCOCCN)[C@@H](C)O)C(=O)N[C@@H](CCCCN)C(=O)N[C@H](C(=O)N[C@@H](CC(C)C)C(=O)N[C@@H](CCCNC(=N)N)C(=O)N[C@H](C(=O)NCC(=O)N[C@H]1CSSC[C@@H](C(=O)N[C@H](C(=O)N[C@H](C(=O)N[C@@H](CCC(N)=O)C(=O)N[C@@H](CCCCN)C(=O)N[C@@H](CC(C)C)C(=O)N[C@@H](C)C(=O)N[C@@H](Cc2c[nH]cn2)C(=O)N[C@@H](CCC(N)=O)C(=O)N[C@H](C(=O)N[C@@H](Cc2ccc(O)cc2)C(=O)N[C@@H](CCC(N)=O)C(=O)N[C@@H](Cc2ccccc2)C(=O)N[C@H](C(=O)N[C@@H](CC(=O)O)C(=O)N[C@@H](CCCCN)C(=O)N[C@@H](CC(=O)O)C(=O)N[C@@H](CCCCN)C(=O)N[C@@H](CC(=O)O)C(=O)N[C@@H](CC(N)=O)C(=O)N[C@H](C(=O)N[C@@H](C)C(=O)N2CCC[C@H]2C(=O)N[C@H](C(=O)N[C@@H](CC(=O)O)C(=O)N2CCC[C@H]2C(=O)N[C@@H](CO)C(=O)N[C@@H](CO)C(=O)N2CCC[C@H]2C(=O)N[C@@H](Cc2c[nH]cn2)C(=O)N[C@@H](CO)C(=O)N[C@@H](Cc2ccc(O)cc2)C(N)=O)C(C)C)C(C)C)[C@@H](C)O)[C@@H](C)CC)C(C)C)[C@@H](C)O)NC(=O)[C@H]([C@@H](C)O)NC(=O)CNC(=O)[C@H](Cc2ccccc2)NC(=O)[C@H](CCCNC(=N)N)NC1=O)[C@@H](C)O)[C@@H](C)O [SEQ ID NO: 42]		76%	56%	
CCCCCCCCCCCCCCCC(=O)NCCCC[C@H](NC(=O)COCCOCCN)C(=O)NCC(=O)N[C@H]1CSSC[C@@H](C(=O)N[C@H](C(=O)N[C@H](C(=O)N[C@@H](CCC(N)=O)C(=O)N[C@@H](CCCCN)C(=O)N[C@@H](CC(C)C)C(=O)N[C@@H](C)C(=O)N[C@@H](Cc2c[nH]cn2)C(=O)N[C@@H](CCC(N)=O)C(=O)N[C@H](C(=O)N[C@@H](Cc2ccc(O)cc2)C(=O)N[C@@H](CCC(N)=O)C(=O)N[C@@H](Cc2ccccc2)C(=O)N[C@H](C(=O)N[C@@H](CC(=O)O)C(=O)N[C@@H](CCCCN)C(=O)N[C@@H](CC(=O)O)C(=O)N[C@@H](CCCCN)C(=O)N[C@@H](CC(=O)O)C(=O)N[C@@H](CC(N)=O)C(=O)N[C@H](C(=O)N[C@@H](CC(=O)O)C(=O)N2CCC[C@H]2C(=O)N[C@@H](CO)C(=O)N[C@@H](CO)C(=O)N2CCC[C@H]2C(=O)N[C@@H](Cc2c[nH]cn2)C(=O)N[C@@H](CO)C(=O)N[C@@H](Cc2ccc(O)cc2)C(N)=O)C(C)C)[C@@H](C)O)[C@@H](C)CC)C(C)C)[C@@H](C)O)NC(=O)[C@H]([C@@H](C)O)NC(=O)CNC(=O)[C@H](Cc2ccccc2)NC(=O)[C@H](CCCNC(=N)N)NC1=O [SEQ ID NO: 94]		82%	67%	CLR/RAMP2-specific
CCCCCCCCCCCCCCCC(=O)NCCCC[C@H](NC(=O)COCCOCCN)C(=O)NCC(=O)N[C@H]1CSSC[C@@H](C(=O)N[C@H](C(=O)N[C@H](C(=O)N[C@@H](CCC(N)=O)C(=O)N[C@@H](CCCCN)C(=O)N[C@@H](CC(C)C)C(=O)N[C@@H](C)C(=O)N[C@@H](Cc2c[nH]cn2)C(=O)N[C@@H](CCC(N)=O)C(=O)N[C@H](C(=O)N[C@@H](Cc2ccc(O)cc2)C(=O)N[C@@H](CCC(N)=O)C(=O)N[C@@H](Cc2ccccc2)C(=O)N[C@H](C(=O)N[C@@H](CC(=O)O)C(=O)N[C@@H](CCCCN)C(=O)N[C@@H](CC(=O)O)C(=O)N[C@@H](CCCCN)C(=O)N[C@@H](CC(=O)O)C(=O)N[C@@H](CO)C(=O)N[C@@H](C)C(=O)N2CCC[C@H]2C(=O)N[C@H](C(=O)N[C@@H](CC(=O)O)C(=O)N2CCC[C@H]2C(=O)N[C@@H](CO)C(=O)N[C@@H](CO)C(=O)N2CCC[C@H]2C(=O)N[C@@H](Cc2c[nH]cn2)C(=O)N[C@@H](CO)C(=O)N[C@@H](Cc2ccc(O)cc2)C(N)=O)C(C)C)[C@@H](C)O)[C@@H](C)CC)C(C)C)[C@@H](C)O)NC(=O)[C@H]([C@@H](C)O)NC(=O)CNC(=O)[C@H](Cc2ccccc2)NC(=O)[C@H](CCCNC(=N)N)NC1=O [SEQ ID NO: 46] (H-[AEEA]K(Palmitoyl)GCRFGTCTVQKLAHQIYQFTDKDKDSAPVDPSSPHSY-NH2; disulfide 4-9)		104%	60%	
CCCCCCCCCCCCCCCC(=O)NCCCC[C@H](NC(=O)COCCOCCN)C(=O)NCC(=O)N[C@H]1CSSC[C@@H](C(=O)N[C@H](C(=O)N[C@H](C(=O)N[C@@H](CCC(N)=O)C(=O)N[C@@H](CCCCN)C(=O)N[C@@H](CC(C)C)C(=O)N[C@@H](C)C(=O)N[C@@H](Cc2c[nH]cn2)C(=O)N[C@@H](CCC(N)=O)C(=O)N[C@H](C(=O)N[C@@H](Cc2ccc(O)cc2)C(=O)N[C@@H](CCC(N)=O)C(=O)N[C@@H](Cc2ccccc2)C(=O)N[C@H](C(=O)N[C@@H](CC(=O)O)C(=O)N[C@@H](CCCCN)C(=O)N[C@@H](CC(=O)O)C(=O)N[C@@H](CCCCN)C(=O)N[C@@H](CC(=O)O)C(=O)N[C@@H](CC(N)=O)C(=O)N[C@H](C(=O)N[C@@H](C)C(=O)N2CCC[C@H]2C(=O)N[C@@H](CCCNC(=N)N)C(=O)N[C@@H](CO)C(=O)N[C@@H](CCCCN)C(=O)N[C@@H](CO)C(=O)N[C@@H](CO)C(=O)N2CCC[C@H]2C(=O)N[C@@H](Cc2c[nH]cn2)C(=O)N[C@@H](CO)C(=O)N[C@@H](Cc2ccc(O)cc2)C(N)=O)C(C)C)[C@@H](C)O)[C@@H](C)CC)C(C)C)[C@@H](C)O)NC(=O)[C@H]([C@@H](C)O)NC(=O)CNC(=O)[C@H](Cc2ccccc2)NC(=O)[C@H](CCCNC(=N)N)NC1=O [SEQ ID NO: 61]		92%	70%	
